Source: US20080300298A1, “Honokiol Derivates For the Treatment of Proliferative Disorders” (priority 2005, published 2008)

Experiments:
lymph node cultures = assay: antigen recall lymph node cultures from treated mice; type: in vivo, C57BL/6 or mCD40-LMP1 Tg mice; details: honokiol 3 mg/day, day 21-70 post-immunization
Description: Mice were assessed 70 days post-immunization with CII/CF or CFA only (or naïve). Some mice received honokiol (3 mg/day) from day 21-70 post-immunization.

H1299 cells = assay: Invasion assay (Matrigel); type: cell-based, human
Description: (A) RAW 264.7 cells (1×10^4) were plated overnight, pretreated with 5 mM honokiol for 12 h, and then treated with 5 nM RANKL. At 4 and 5 days later, cells were stained for TRAP and evaluated for osteoclastogenesis. Photographs were taken after 5 days of incubation with RANKL. (B) The numbers of TRAP-positive multinucleated osteoclasts (>3 nuclei) per well were counted. (C) H1299 cells (2.5×10^4) were seeded into the upper wells of a Matrigel invasion chamber overnight in the absence of serum, pretreated with […] honokiol for 12 h, treated with 1 nM TNF for 24 h in the presence of 1% serum, and then subjected to invasion assay. The value for no honokiol and no TNF was set to 1.0.
Invasion assay. The membrane invasion culture system was used to assess cell invasion because invasion through the extracellular matrix is a crucial step in tumor metastasis. […] The cells that invaded through the Matrigel (i.e., those that migrated to the lower chamber during incubation) were stained with […] calcein-AM (Molecular Probes) in PBS for 30 min at 37° C. and scanned for fluorescence with a Victor 3 multi-plate reader (Perkin Elmer Life and Analytical Sciences, Boston, Mass.); fluorescent cells were counted. […]

[1] = test system: collagen induced arthritis (CIA); assay: collagen induced arthritis (CIA); type: in vivo, C57Bl/6 and LMP1 transgenic mice; details: 3 mg/mouse/day i.p. from day 21 post-immunization
Description: Female mice expressing the mCD40-LMP1 transgene (on a CD40−/− background) were bred in our transgenic mouse facility. Mice were either left naïve, immunized in the tail s.c. with […] Type II Chicken Collagen (Sigma) dissolved in 10 mM acetic acid and emulsified in IFA (Sigma) containing 5 mg/ml H37 RA heat-killed mycobacteria (Difco) (CFA), or immunized with 10 mM acetic acid emulsified in CFA. Some of the mice were injected i.p. with 3 mg/mouse/day honokiol suspended in 20% Intralipid, starting at day 21 post-immunization.

CH12.hCD40-LMP1 B cells = assay: CD40/LMP1 mediated cytokine and IgM production; type: cell-based, mouse
Description: IL-6 and TNF-a levels in culture supernatants were determined by ELISA. Subsequent IgM production by CH12.LX cells is also affected, as determined by assaying IgM secretion by CH12.hCD40-LMP1 cells. IgM secretion was measured by hemolytic plaque assay, as previously described (GA Bishop. 1991. J. Immunol. 147(4): 1107-1114).

AMP kinase in PC3 cells = assay: AMPK activation (Western blot); type: cell-based, human; details: normoxic and hypoxic conditions
Description: Bharti, A. C. et al (2004) Blood 103, 3175-3184; Arbiser, J. L et al (1998) Mol. Med. 4, 376-383; Woods, A. et al (2003) Current Biology 13, 2004-2008; Shaw, R. J. et al (2004) PNAS 101, 3329-3335; Buzzai, M. et al (2005) Oncogene 24, 4165-4173). […] PC3 cells were treated with honokiol in normoxia (left) or hypoxia (right). In both cases, HIF-1a induction is dose dependent, and in the case of hypoxia, at least additive. Compounds can be tested on the p53 deficient PC3 human prostate cancer cell line, to see whether treatment results in activation of AMPK as in FIG. 20. PC3 cells can be treated with compound or vehicle for 24 hours, then proteins harvested and analyzed by Western blot for phosphorylation of the alpha subunit of AMPK, a marker of AMPK activation. In addition, phosphorylation of a substrate of AMPK, acetyl CoA carboxylase (ACC) can be monitored by Western blot.

Compound: C=CCc1ccc(O)c(-c2ccc(O)c(CC=C)c2)c1 [HNK, Honokiol]
- proliferation and cytokine production of antigen recall lymph node cultures (lymph node cultures): decreased proliferation and IFN-g production, with unaltered IL-10 production
- TNF-induced tumor cell invasion (H1299 cells; H1299, 10 mM (printed) honokiol 12 h, 1 nM TNF 24 h): suppressed this activity
- invasion activity of honokiol alone (H1299 cells; H1299, no TNF): had no invasion activity
- collagen induced arthritis (CIA) pathology [1]: stablizes collagen induced arthritis (CIA) pathology
- CD40/LMP1 mediated IL-6, TNF-a production (CH12.hCD40-LMP1 B cells; CH12.LX cells transfected with hCD40-LMP1, not IL-10 or IL-4): inhibits CD40/LMP1 mediated IL-6, TNF-a production in a dose-dependent manner
- IgM secretion (hemolytic plaque assay) (CH12.hCD40-LMP1 B cells; CH12.hCD40-LMP1 cells): inhibited IgM production
- phosphorylation (activation) of AMP kinase (AMP kinase in PC3 cells): increased phosphorylation (activation) of AMP kinase
